Measured values from patent publication US20200390100A1, “SUBSTITUTED N-HETEROCYCLYL- AND N-HETEROARYL-TETRAHYDROPYRIMIDINONES AND THE SALTS THEREOF, AND THE USE OF SAME AS HERBICIDAL ACTIVE SUBSTANCES” (Bayer Aktiengesellschaft, priority 2017, published 2020).

What was measured:
Assay type in all cases: in vivo
Amaranthus retroflexus [1] = test: Herbicidal post-emergence action (Part 2), 1280 g/ha; settings: application rate 1280 g/ha, rated visually after about 3 weeks, Table C5
Summary of the method: (§1)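 Sow weeds in sandy loam pots; grow in greenhouse 2 to 3 weeks to one-leaf stage; spray formulated compound with 0.5% additive at 600 liters per hectare; hold about 3 weeks; rate activity visually against untreated controls on a 0 to 100% scale.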

Poa annua [2] = test: as above; settings: application rate 1280 g/ha, rated visually after about 3 weeks, Table C2
Summary of the method: as §1

Stellaria media [3] = test: as above; settings: application rate 1280 g/ha, rated visually after about 3 weeks, Table C7
Summary of the method: as §1

Matricaria inodora [4] = test: as above; settings: application rate 1280 g/ha, rated visually after about 3 weeks, Table C6
Summary of the method: as §1

Echinochloa crus-galli [5] = test: as above; settings: post-emergence (Part 2), application rate 1280 g/ha, rated visually after about 3 weeks vs untreated controls
Summary of the method: as §1

Setaria viridis [6] = test: as above; settings: application rate 1280 g/ha, rated visually after about 3 weeks, Table C3
Summary of the method: as §1

Abutilon theophrasti [7] = test: as above; settings: application rate 1280 g/ha, rated visually after about 3 weeks, Table C4
Summary of the method: as §1

Digitaria sanguinalis = test: Pre-emergence herbicidal action, greenhouse, 320 g/ha; settings: application rate 320 g/ha, Table B9
Summary of the method: (§2)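 Test substances, formulated as wettable powders or emulsion concentrates, are applied to the soil covering the seeds in water containing 0.5% additive. Scoring after roughly three weeks is visual and expressed in percent relative to untreated controls.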

Polygonum convolvulus = test: as above; settings: application rate 320 g/ha, scored visually after about 3 weeks vs untreated controls
Summary of the method: as §2

Amaranthus retroflexus [8] = test: Herbicidal pre-emergence action (Part 2), 1280 g/ha; settings: application rate 1280 g/ha, scored visually after about 3 weeks, Table D6
Summary of the method: (§3)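 Sow seeds in sandy loam, cover with soil. Apply compound (WP or EC, aqueous, 0.5% additive, 600 L/ha) onto covering soil. Grow in greenhouse about 3 weeks, then rate visually as % effect against untreated controls.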

Poa annua [9] = test: as above; settings: application rate 1280 g/ha, scored visually after about 3 weeks, Table D3
Summary of the method: as §3

Stellaria media [10] = test: as above; settings: application rate 1280 g/ha, scored visually after about 3 weeks, Table D8
Summary of the method: as §3

Matricaria inodora [11] = test: as above; settings: application rate 1280 g/ha, scored visually after about 3 weeks, Table D7
Summary of the method: as §3

Echinochloa crus-galli [12] = test: as above; settings: application rate 1280 g/ha, scored visually after about 3 weeks, Table D1
Summary of the method: as §3

Setaria viridis [13] = test: as above; settings: application rate 1280 g/ha, scored visually after about 3 weeks, Table D4
Summary of the method: as §3

Abutilon theophrasti [14] = test: as above; settings: application rate 1280 g/ha, scored visually after about 3 weeks, Table D5
Summary of the method: as §3

Lolium rigidum = test: as above; settings: application rate 1280 g/ha, scored visually after about 3 weeks, Table D2
Summary of the method: as §3

CC1CC(O)N(c2cc(C(C)(C)C)on2)C(=O)N1C (centres unmarked) [I.41-162, 1-(5-tert-Butyl-1,2-oxazol-3-yl)-6-hydroxy-3,4-dimethyltetrahydropyrimidin-2(1H)-one]
100%: Amaranthus retroflexus (Amaranthus retroflexus [1]) | Poa Annua (Poa annua [2]) | Stellaria media (Stellaria media [3]) | Matricaria inodora (Matricaria inodora [4]) | Echinochloa crus-galli (Echinochloa crus-galli [5]) | Setaria viridis (Setaria viridis [6]) | Abutilon theophrasti (Abutilon theophrasti [7]) | Digitaria sanguinalis (efficacy in %) (Digitaria sanguinalis) | Polygonum convolvulus (efficacy in %) (Polygonum convolvulus) | Amaranthus retroflexus (Amaranthus retroflexus [8]) | Poa Annua (Poa annua [9]) | Stellaria media (Stellaria media [10]) | Matricaria inodora (Matricaria inodora [11]) | Echinochloa crus-galli (Echinochloa crus-galli [12]) | Setaria viridis (Setaria viridis [13]) | Abutilon theophrasti (Abutilon theophrasti [14]) | Lolium rigidum (Lolium rigidum)
